Reference: ChEMBL document CHEMBL3046754, “New brassinosteroid analogs having nitrogenated functionalities at C3 to provide more information about the brassinosteroidreceptor interaction” (2004)

Tests used:
Format in all cases: functional
Oryza sativa [1] = assay: Growth regulating activity in Oryza sativa (rice) Bahia cultivar seedlings assessed as interior angle between leaf lamina of second leaf and its leaf sheath at 0.05 ug/plant applied onto second lamina joint of plant sheath measured after 2 days by Oryza sativa lamina inclination test
Oryza sativa [2] = assay: Growth regulating activity in Oryza sativa (rice) Bahia cultivar seedlings assessed as interior angle between leaf lamina of second leaf and its leaf sheath at 0.01 ug/plant applied onto second lamina joint of plant sheath measured after 2 days by Oryza sativa lamina inclination test
Oryza sativa [3] = assay: Growth regulating activity in Oryza sativa (rice) Bahia cultivar seedlings assessed as interior angle between leaf lamina of second leaf and its leaf sheath at 1 ug/plant applied onto second lamina joint of plant sheath measured after 2 days by Oryza sativa lamina inclination test
Oryza sativa [4] = assay: Growth regulating activity in Oryza sativa (rice) Bahia cultivar seedlings assessed as interior angle between leaf lamina of second leaf and its leaf sheath at 0.5 ug/plant applied onto second lamina joint of plant sheath measured after 2 days by Oryza sativa lamina inclination test
Oryza sativa [5] = assay: Growth regulating activity in Oryza sativa (rice) Bahia cultivar seedlings assessed as interior angle between leaf lamina of second leaf and its leaf sheath at 0.1 ug/plant applied onto second lamina joint of plant sheath measured after 2 days by Oryza sativa lamina inclination test
Oryza sativa [6] = assay: Growth regulating activity in Oryza sativa (rice) Bahia cultivar seedlings assessed as interior angle between leaf lamina of second leaf and its leaf sheath at 0.02 ug/plant applied onto second lamina joint of plant sheath measured after 2 days by Oryza sativa lamina inclination test

Work on `CC[C@@H](C(C)C)[C@@H](O)[C@H](O)[C@@H](C)[C@H]1CC[C@H]2[C@@H]3CC(=O)[C@H]4C[C@H](N=[N+]=[N-])CC[C@]4(C)[C@H]3CC[C@]12C` yielded an Activity (Oryza sativa [1]) of 24 degree, an Activity (Oryza sativa [2]) of 17 degree and an Activity (Oryza sativa [3]) of 75 degree. It also gave an Activity (Oryza sativa [4]) of 64 degree and an Activity (Oryza sativa [5]) of 30 degree.
`CC[C@@H](C(C)C)[C@@H](O)[C@H](O)[C@@H](C)[C@H]1CC[C@H]2[C@@H]3CC(=O)[C@H]4C[C@H](O)CC[C@]4(C)[C@H]3CC[C@]12C` gave an Activity (Oryza sativa [1]) of 65 degree, an Activity (Oryza sativa [2]) of 46 degree and an Activity (Oryza sativa [3]) of 85 degree. It also gave an Activity (Oryza sativa [4]) of 76 degree and an Activity (Oryza sativa [5]) of 59 degree.
`CC[C@@H](C(C)C)[C@@H](O)[C@H](O)[C@@H](C)[C@H]1CC[C@H]2[C@@H]3COC(=O)[C@H]4C[C@H](N=[N+]=[N-])CC[C@]4(C)[C@H]3CC[C@]12C` showed an Activity (Oryza sativa [1]) of 74 degree, an Activity (Oryza sativa [2]) of 37 degree and an Activity (Oryza sativa [3]) of 106 degree. For the same molecule, the Activity (Oryza sativa [4]) was 94 degree, the Activity (Oryza sativa [6]) was 44 degree and the Activity (Oryza sativa [5]) was 86 degree.
Molecule `CC[C@@H](C(C)C)[C@H](O)[C@@H](O)[C@@H](C)[C@H]1CC[C@H]2[C@@H]3CC(=O)[C@H]4C[C@H](N=[N+]=[N-])CC[C@]4(C)[C@H]3CC[C@]12C` has an Activity (Oryza sativa [3]) of 1 degree.
`CC[C@@H](C(C)C)[C@H](O)[C@@H](O)[C@@H](C)[C@H]1CC[C@H]2[C@@H]3CC(=O)[C@H]4C[C@H](N)CC[C@]4(C)[C@H]3CC[C@]12C` gave an Activity (Oryza sativa [3]) of 3 degree.
With `CC[C@@H](C(C)C)[C@@H](O)[C@H](O)[C@@H](C)[C@H]1CC[C@H]2[C@@H]3COC(=O)[C@H]4C[C@H](N)CC[C@]4(C)[C@H]3CC[C@]12C` the Activity (Oryza sativa [3]) was 55 degree, the Activity (Oryza sativa [4]) was 31 degree and the Activity (Oryza sativa [5]) was 16 degree.
`CC[C@@H](C(C)C)[C@H](O)[C@@H](O)[C@@H](C)[C@H]1CC[C@H]2[C@@H]3COC(=O)[C@H]4C[C@H](N)CC[C@]4(C)[C@H]3CC[C@]12C` was tested, and the Activity (Oryza sativa [3]) was 5 degree.
`CC[C@@H](C(C)C)[C@H](O)[C@@H](O)[C@@H](C)[C@H]1CC[C@H]2[C@@H]3COC(=O)[C@H]4C[C@H](N=[N+]=[N-])CC[C@]4(C)[C@H]3CC[C@]12C` gave an Activity (Oryza sativa [3]) of 48 degree and an Activity (Oryza sativa [4]) of 17 degree.
`CC[C@@H](C(C)C)[C@@H](O)[C@H](O)[C@@H](C)[C@H]1CC[C@H]2[C@@H]3CC(=O)[C@H]4C[C@H](N)CC[C@]4(C)[C@H]3CC[C@]12C` gave an Activity (Oryza sativa [3]) of 23 degree.
